Laboratory results from patent US20100105773A1, “USE OF RESOLVINS AND DOCOSATRIENES AND ANALOGUES THEREOF FOR THE TREATMENT OF ANGIOGENESIS AND OCULAR NEOVASCULARIZATION” (THE CHILDREN'S MEDICAL CENTER CORPORATION, priority 2006, published 2010).
Entries after “also recorded” stand apart in the source; their conditions may differ.

Assays:
TNF-α = conditions: literature refs 14-16; cited from earlier work
[1] = system: oxygen-induced vessel loss (retinal vasculature); test: Oxygen-induced vessel loss (vaso-obliteration) at P8 after 24 hours of 75% oxygen; type: in vivo, mouse; conditions: 10 ng i.p. P5-P8, 24 hours of 75% oxygen
Protocol: O2-induced retinopathy (vessel degeneration, re-growth and pathological neovascularization). To induce vessel loss, postnatal day 7 (P7) mice with their nursing mother were exposed to 75% oxygen for times ranging from 24 hours to 5 days^1. To evaluate vaso-obliteration following 24 hours of oxygen exposure, P8 mice were anesthetized at with Avertin (Sigma) and perfused with 50 μl of 120 mg/ml FITC-dextran (2×10^6 molecular weight, FD2000S-5G, Sigma) in saline through the left ventricle^21. Eyes were enucleated and fixed in 4% paraformaldehyde for 2 h at 4° C. Retinas were isolated and whole-mounted with SlowFade Antifade reagent (S2828, Molecular Probes) onto polylysin-coated slides with the photoreceptor side up. Retinas were examined with a fluorescence microscope (Olympus, Tokyo), digitized images using a three-charge-coupled device color video camera (DX-950P, Sony), and processed with NORTHERN ECLIPSE software (Empix Imaging, Toronto). Retinal neovascularization was evaluated 5 days after oxygen exposure (P7-P12) at P17 when the neovascular response is greatest. […]
Quantification of vaso-obliteration and retinal neovascularization. […] Vaso-obliteration and neovascular tuft formation were quantified by comparing the number of pixels in the affected areas with the total number of pixels in the retina. […]
Resolvins and Neuroprotectins. […] Retinas collected at P17 from omega-6 or omega-3 polyunsaturated fatty acid fed dams and exposed to high oxygen or room air conditions were analyzed to determine lipid mediator profiles. Polyunsaturated fatty acid derived products were extracted, identified, and quantified using a deuterium-labeled internal standard and MS-MS based mediator informatics^23. […] Following retinal staining and whole-mounting, neovascularization and vaso-obliteration were quantified at P17. Vaso-obliteration was also assessed at P8 (after 24 hours of 75% oxygen exposure) in pups given 10 ng of RvD1 (n=7), RvE1 (n=9), NPD1 (n=7), or saline/EtOH vehicle injections (n=6) i.p. from P5-P8. […]

[2] = system: oxygen-induced retinopathy (retinal vasculature); test: O2-induced retinopathy: vaso-obliteration and neovascularization at P17; type: in vivo, mouse; conditions: for decrease in neovascularization (Tufts) compared to vehicle / decrease in vessel loss (VO) compared to vehicle control: 10 ng i.p. daily P6-P17, read at P17; for neovascularization at P17 compared to saline controls / protection from vaso-obliteration compared to saline-injected controls: 10 ng/day i.p. P6-P17
Protocol: O2-induced retinopathy (vessel degeneration, re-growth and pathological neovascularization). To induce vessel loss, postnatal day 7 (P7) mice with their nursing mother were exposed to 75% oxygen for times ranging from 24 hours to 5 days^1. To evaluate vaso-obliteration following 24 hours of oxygen exposure, P8 mice were anesthetized at with Avertin (Sigma) and perfused with 50 μl of 120 mg/ml FITC-dextran (2×10^6 molecular weight, FD2000S-5G, Sigma) in saline through the left ventricle^21. Eyes were enucleated and fixed in 4% paraformaldehyde for 2 h at 4° C. Retinas were isolated and whole-mounted with SlowFade Antifade reagent (S2828, Molecular Probes) onto polylysin-coated slides with the photoreceptor side up. Retinas were examined with a fluorescence microscope (Olympus, Tokyo), digitized images using a three-charge-coupled device color video camera (DX-950P, Sony), and processed with NORTHERN ECLIPSE software (Empix Imaging, Toronto). Retinal neovascularization was evaluated 5 days after oxygen exposure (P7-P12) at P17 when the neovascular response is greatest. P17 mice were given a lethal dose of Avertin (Sigma) and their eyes were enucleated and fixed in 4% paraformaldehyde for 2 h at 4° C. Retinas were isolated and stained overnight with fluoresceinated Griffonia Bandereiraea Simplicifolia Isolectin B4 (Alexa Fluor 488-121411 or Alexa Fluor 594-121413, Molecular Probes) in 1 mM CaCl2 in PBS. Following 2 hours of washes, retinas were whole-mounted with glycerol-gelatin (Sigma) onto polylysin-coated slides with the photoreceptor side up and imaged with a confocal microscope.
Quantification of vaso-obliteration and retinal neovascularization. Images of each of 4 quadrants of whole-mounted retina were taken at 5× magnification and imported into Adobe Photoshop. Retinal segments were merged to produce an image of the entire retina. Vaso-obliteration and neovascular tuft formation were quantified by comparing the number of pixels in the affected areas with the total number of pixels in the retina. Percentages of vaso-obliteration and neovascularization from mouse retinas were compared with values for retinas from age-matched control mice with identical oxygen conditions^17,22. Evaluation was done blind to the identity of the sample.
Resolvins and Neuroprotectins. C57B1/6 nursing mothers were fed a diet rich in either omega-6 or omega-3 polyunsaturated fatty acids from birth. To induce proliferative retinopathy in the pups, mice were exposed to 75% oxygen from P7 to P12. Retinas collected at P17 from omega-6 or omega-3 polyunsaturated fatty acid fed dams and exposed to high oxygen or room air conditions were analyzed to determine lipid mediator profiles. Polyunsaturated fatty acid derived products were extracted, identified, and quantified using a deuterium-labeled internal standard and MS-MS based mediator informatics^23. Results were obtained from retinas of six mice, each from a separate litter. Treatments with synthetic RvD1 (7S,8R,17S-trihydroxy-docosa-4Z,9E,11E,13Z,15E,19Z-hexaenoic acid), RvE1 (5S,12R,18R-trihydroxy-6Z,8E,10E,14Z,16E-eicosapentaenoic acid) and Neuroprotectin-D1 (10R,17S dihydroxy-docosa-4Z,7Z,11E,13E,15Z,19z-hexaneoic acid) were performed in 4 litters of mice. RvD1, RvE1 and NPD1 were prepared by organic synthesis according to published procedures matching physical and biological criteria^14,24,25. The pups were injected i.p. daily from P6-P17 (before, during, and after exposure to 75% oxygen) with 10 ng of either RvD1 (n=14), RvE1 (n=10) or NPD1 (n=14) or Saline/EtOH (n=14) vehicle. Following retinal staining and whole-mounting, neovascularization and vaso-obliteration were quantified at P17. Vaso-obliteration was also assessed at P8 (after 24 hours of 75% oxygen exposure) in pups given 10 ng of RvD1 (n=7), RvE1 (n=9), NPD1 (n=7), or saline/EtOH vehicle injections (n=6) i.p. from P5-P8. Vaso-obliteration was quantified on retinal whole-mounts following FITC-dextran intracardiac perfusion and fixation as above. […]

[3] = system: oxygen-induced retinopathy (retinal vasculature); test: as above; type: in vivo, mouse
[4] = i.p. injection, 500 μg/mouse at P7, P12, P14, P16, omega-6 PUFA fed mice
[5] = intraocular (intravitreous) injection 12.5 μg on P12, omega-6 PUFA fed mice

Molecule	TNF-α mRNA expression levels in inflammatory models (TNF-α)	oxygen-induced vessel loss (VO) at P8 compared to saline-injected control [1]	decrease in neovascularization (Tufts) compared to vehicle [2]	decrease in vessel loss (VO) compared to vehicle control [2]	neovascularization at P17 compared to saline controls [2]	protection from vaso-obliteration compared to saline-injected controls [2]	pathologic neovascularization compared to saline injected controls [3, 4]	vaso-obliteration (vessel loss) compared to saline injected controls [3, 4]	retinal neovascularization compared to fellow saline-injected eye [3, 5]	vaso-obliteration compared to fellow saline-injected eye [3, 5]
CC/C=C\C[C@H](O)\C=C/C=C/C=C/[C@H](O)C/C=C\C/C=C\CCC(=O)O [NPD1, 10R,17S dihydroxy-docosa-4Z,7Z,11E,13E,15Z,19z-hexaneoic acid]	significantly reduce TNF-α mRNA expression levels	No apparent differences in vessel loss; also recorded: no protective action	30%	40%	less neovascularization	significant protection from vaso-obliteration	–	–	–	–
CC/C=C\C[C@H](O)/C=C/C=C\C=C\C=C\[C@@H](O)[C@@H](O)C/C=C\CCC(=O)O [RvD1, 7S,8R,17S-trihydroxy-docosa-4Z,9E,11E,13Z,15E,19Z-hexaenoic acid]	significantly reduce TNF-α mRNA expression levels	No apparent differences in vessel loss	30%	40%	less neovascularization	significant protection from vaso-obliteration	–	–	–	–
CC[C@@H](O)/C=C/C=C\C[C@@H](O)/C=C/C=C/C=C\[C@@H](O)CCCC(=O)O [RvE1, 5S,12R,18R-trihydroxy-6Z,8E,10E,14Z,16E-eicosapentaenoic acid]	significantly reduce TNF-α mRNA expression levels	No apparent differences in vessel loss; also recorded: no protective action	30%	40%	less neovascularization	significant protection from vaso-obliteration	–	–	–	–
etanercept	–	–	–	–	–	–	significantly protected; also recorded: significant reduction in pathologic neovascularization	significantly protected; also recorded: significant reduction in vaso-obliteration	suppressed retinal neovascularization; also recorded: significantly improved neovascularization	significantly reduce vaso-obliteration
